Source: US9084420B2, “Amide derivative, pest control agent containing the amide derivative, and pest controlling method” (Mitsui Chemicals Agro, Inc., priority 2008, dated 2015)

Experiments:
Assay type in all cases: in vivo
Spodoptera litura [1] = assay: Pesticidal test against Spodoptera litura (cabbage leaf immersion); conditions: 144 h, 2-stage larvae on treated cabbage leaf, 25° C., after 6 days, read-out: pesticidal rate
Experimental: (§1) Pesticidal Test Against Spodoptera litura A piece of a cabbage leaf was immersed for 30 seconds in a chemical solution in which a test compound had been diluted at a predetermined concentration, and air-dried, and then put into a 7 cm polyethylene cup having a filter paper laid on the bottom thereof, and 2-stage larvae of Spodoptera litura were released. They were left to stand in a thermostatic chamber at 25° C., and the numbers of the living pests and the dead pests were examined after 6 days. The test was carried out with five larvae per group in two replicates.

Spodoptera litura [2] = assay: Pesticidal test of penetration migration against Spodoptera litura (radish seedling root immersion); conditions: 72 h, radish seedling root immersed 2 days, leaf fed to 2-stage larvae, 25° C., after 3 days, read-out: pesticidal rate
Experimental: Pesticidal Test of Penetration Migration against Spodoptera litura A root portion of a radish seedling was immersed for 2 days in a chemical solution in which a test compound had been diluted at a predetermined concentration, then the leaf was cut and put into a 7 cm polyethylene cup having a filter paper laid on the bottom thereof, and 2-stage larvae of Spodoptera litura were released. They were left to stand in a thermostatic chamber at 25° C., and the numbers of the living pests and the dead pests were examined after 3 days. The test was carried out with five larvae per group in two replicates.

Musca domestica = assay: Pesticidal test against Musca domestica (petri dish residue); conditions: 24 h, acetone solution dried in petri dish, female adults, 25° C., after 1 day, read-out: pesticidal rate
Experimental: Pesticidal Test Against Musca domestica
1 ml of an acetone solution in which a test compound had been diluted at a predetermined concentration was added dropwise to a petri dish having a diameter of 9 cm, and air-dried, and then the female adults of Musca domestica were released and the petri dish was capped. They were left to stand in a thermostatic chamber at 25° C., and the numbers of the living pests and the dead pests were examined after 1 day. The test was carried out with […] in two replicates.

Plutella xylostella = assay: Pesticidal test against Plutella xylostella (cabbage leaf immersion); conditions: 144 h, 3-stage larvae on treated cabbage leaf, 25° C., after 6 days, read-out: pesticidal rate
Experimental: as §1, with “Plutella xylostella” for “Spodoptera litura”, “3-stage” for “2-stage”

CNC(=O)CCN(C(=O)c1ccccc1)c1cccc(C(=O)Nc2c(I)cc(C(F)(C(F)(F)F)C(F)(F)F)cc2C(F)(F)F)c1 [5-86, N-(3-(2-iodo-4-(perfluoropropan-2-yl)-6-(trifluoromethyl)phenylcarbamoyl)phenyl)-N-(3-(methylamino)-3-oxopropyl)benzamide]
≥ 70%: pest or weed control at 100 ppm (Spodoptera litura [1]) | pest or weed control at 1 ppm (Spodoptera litura [2]) | pest or weed control at 1000 ppm (Musca domestica) | pest or weed control at 100 ppm (Plutella xylostella)
